Assay results taken from publication PMC8373216, “Development and Preclinical Evaluation of New Inhaled Lipoglycopeptides for the Treatment of Persistent Pulmonary Methicillin-Resistant Staphylococcus aureus Infections” (Antimicrobial Agents and Chemotherapy, 2021).
Values after ≈ are worked out from the molar mass of the structure shown. Read-outs that look alike come from different tables or passages of the source.

Key:
[1] = tested on: MRSA ATCC BAA 1556 (USA300) biofilm; test: Static MRSA biofilm killing, plastic microtiter plate, MEM
[2] = Single-dose nebulized nose-only inhalation PK in healthy rats; type: in vivo, rat; details: rat, in vivo
Method: Rats were acclimated in the study facility for approximately 1 week prior to study start. Ten or eleven rats per cohort were loaded into the chamber at the time of dosing. […] An additional airflow set to 6 liters/min was admixed with the nebulizer output to further direct the test articles to the animals. […] The remaining port on the chamber was fit with an aerosol sampling filter for dose determination over a 5 min sampling period. The average dose delivered to the nose of each animal was calculated using an algorithm that was previously described ([49]). […] Animals were euthanized for collection of whole lungs and plasma at time points ranging from immediate postdose (IPD; approximately 30 min after dosing for nebulization) to 168 h postdose (7 days). Drugs were extracted from tissues using customized protein precipitation methods with an appropriate internal standard for each compound and transferred for analysis by LC-MS/MS (Sciex API4500 or API6500+ mass spectrometer [Sciex, Framingham, MA]). GraphPad Prism (La Jolla, CA) was used for statistical analyses and data plotting. […] The data were applied to a noncompartmental analysis after extravascular dosing input and fit to a linear up/log down model. Statistical analysis of in vitro intracellular and biofilm activity was based on a two-way ANOVA with a Bonferroni post test. In vivo statistical analysis was based on the Kolmogorov-Smirnov test.

Streptococcus pyogenes = test: Expanded panel broth microdilution MIC/MBC; type: cell-based; details: for MIC: Streptococcus pyogenes
Streptococcus anginosus = test: Expanded panel broth microdilution MIC/MBC; type: cell-based; details: for MIC: Streptococcus anginosus, read-out: MIC
[3] = tested on: Streptococcus constellatus; test: Expanded panel broth microdilution MIC; type: cell-based
Enterococcus faecalis = test: Expanded panel broth microdilution MIC/MBC; type: cell-based
S. aureus = test: Expanded panel broth microdilution MIC/MBC; details: for MIC: Staphylococcus aureus
Enterococcus faecium = test: Expanded panel broth microdilution MIC/MBC; type: cell-based; details: for MIC: Enterococcus faecium, read-out: MIC
MSSA ATCC 29213 = test: In-house broth microdilution MIC screening; type: cell-based; details: Staphylococcus aureus; broth microdilution; read-out: MIC Value, MSSA ATCC 29213
[4] = male, Sprague Dawley, inhaled or intranasal

SMILES: CCCCCCCCCCNCCN[C@@]1(C)C[C@H](O[C@H]2[C@H](Oc3c4cc5cc3Oc3ccc(cc3Cl)[C@@H](O)[C@@H](NC(=O)[C@@H](CC(C)C)NC)C(=O)N[C@@H](CC(N)=O)C(=O)N[C@H]5C(=O)N[C@H]3C(=O)N[C@H](C(=O)N[C@H](C(=O)O)c5cc(O)cc(O)c5-c5cc3ccc5O)[C@H](O)c3ccc(c(Cl)c3)O4)O[C@H](CO)[C@@H](O)[C@@H]2O)O[C@@H](C)[C@H]1O [RV40, N-decylaminoethylvancomycin]
- Reduction in MRSA biofilm titer versus control ([1]; doses 1 to 10 μg/ml): ~3 log10 CFU/ml
- Concentrations with statistically significant reduction versus control biofilm ([1]; two-way ANOVA, Bonferroni): ≥ 1.25 µg/mL
- Pulmonary dose ([2]; male, Sprague Dawley): 0.30 mg/kg
- Drug lung level at 120 h ([2]; male, Sprague Dawley, 120 h): 105%
- Kp [2, 4]: 690
- Lung AUC0-∞ [2, 4]: 9800 µg·h/g
- Lung Cmax [2, 4]: 48 µg/g
- Plasma Cmax [2, 4]: 0.10 µg/mL
- Elimination from the lung [2]: not measurably eliminated from the lung
- MIC:MBC (Streptococcus pyogenes; S. pyogenes ermR): 1
- MIC (Streptococcus pyogenes; ATCC19615, S. pyogenes ATCC 19615, read-out: MIC): 0.06 mg/L (≈ 36.8 nM)
- MIC (Streptococcus pyogenes; S. pyogenes MMX 946, ermR, read-out: MIC): 0.008 mg/L (≈ 4.9 nM)
- MIC (Streptococcus pyogenes; S. pyogenes MMX 8778, read-out: MIC): 0.015 mg/L (≈ 9.19 nM)
- MIC (Streptococcus pyogenes; S. pyogenes ermR, 1 isolate, read-out: MIC): 0.008 mg/L (≈ 4.9 nM)
- MIC (Streptococcus pyogenes; S. pyogenes, 2 isolates, read-out: MIC (median)): 0.04 mg/L (≈ 24.5 nM)
- MIC:MBC (Streptococcus anginosus; S. anginosus AGS): >8
- MIC (Streptococcus anginosus; ATCC33397, S. anginosus (AGS) ATCC 33397): 0.015 mg/L (≈ 9.19 nM)
- MIC (Streptococcus anginosus; S. anginosus AGS, 1 isolate): 0.015 mg/L (≈ 9.19 nM)
- MIC ([3]; S. constellatus AGS, 1 isolate): 0.008 mg/L (≈ 4.9 nM)
- MIC ([3]; Streptococcus constellatus, S. constellatus (AGS) MMX 5677, read-out: MIC): 0.008 mg/L (≈ 4.9 nM)
- MIC:MBC (Enterococcus faecalis; E. faecalis VSE, MBC on one organism): >8
- MIC:MBC (Enterococcus faecalis; E. faecalis VanA VRE): 8
- MIC (Enterococcus faecalis; E. faecalis VanA VRE, 1 isolate): 0.5 mg/L (≈ 306 nM)
- MIC (Enterococcus faecalis; Enterococcus faecalis, ATCC29212, E. faecalis ATCC 29212, VSE, read-out: MIC): 0.015 mg/L (≈ 9.19 nM)
- MIC (Enterococcus faecalis; Enterococcus faecalis, E. faecalis MMX 1086, VanA VRE, read-out: MIC): 0.5 mg/L (≈ 306 nM)
- MIC (Enterococcus faecalis; Enterococcus faecalis, E. faecalis MMX 4176, VSE, read-out: MIC): 0.03 mg/L (≈ 18.4 nM)
- MIC (Enterococcus faecalis; Enterococcus faecalis, E. faecalis VSE, 2 isolates, read-out: MIC (median)): 0.023 mg/L (≈ 14.1 nM)
- MIC:MBC (S. aureus; S. aureus MRSA, MBC median of n = 5): 1
- MIC:MBC (S. aureus; S. aureus MSSA, MBC on one organism): 1
- MIC:MBC (S. aureus; S. aureus VISA, MBC median of n = 2): 1
- MIC:MBC (S. aureus; S. aureus hVISA, MBC on one organism): 1
- MIC (S. aureus; ATCC13709 / MSSA, S. aureus ATCC 13709, MSSA): 0.015 mg/L (≈ 9.19 nM)
- MIC (S. aureus; ATCC29213 / MSSA, S. aureus ATCC 29213, MSSA): 0.008 mg/L (≈ 4.9 nM)
- MIC (S. aureus; ATCC43300 / MRSA, S. aureus ATCC 43300, MRSA): 0.008 mg/L (≈ 4.9 nM)
- MIC (S. aureus; ATCCBAA1556|MRSA|USA300, S. aureus ATCC BAA-1556, MRSA, USA300 (expanded panel)): 0.008 mg/L (≈ 4.9 nM)
- MIC (S. aureus; ATCCBAA1756|MRSA|NRS384|USA300, S. aureus NRS 384, ATCC BAA-1756, MRSA, USA300): 0.008 mg/L (≈ 4.9 nM)
- MIC (S. aureus; MRSA / NRS123 / USA400, S. aureus NRS123, MRSA, USA400): 0.008 mg/L (≈ 4.9 nM)
- MIC (S. aureus; MRSA / NRS725 / USA300, S. aureus NRS725, MRSA, USA300): 0.008 mg/L (≈ 4.9 nM)
- MIC (S. aureus; MRSA / USA300, S. aureus MMX 3982, MRSA, USA300): 0.008 mg/L (≈ 4.9 nM)
- MIC (S. aureus; MRSA, S. aureus MMX 5715, MRSA): 0.015 mg/L (≈ 9.19 nM)
- MIC (S. aureus; MRSA, S. aureus MMX 7899, MRSA): 0.008 mg/L (≈ 4.9 nM)
- MIC (S. aureus; MRSA, S. aureus MMX 7900, MRSA): 0.008 mg/L (≈ 4.9 nM)
- MIC (S. aureus; MRSA, S. aureus MMX 7901, MRSA): 0.008 mg/L (≈ 4.9 nM)
- MIC (S. aureus; MRSA, S. aureus MMX 7902, MRSA): 0.015 mg/L (≈ 9.19 nM)
- MIC (S. aureus; MRSA, S. aureus MMX 7903, MRSA): 0.008 mg/L (≈ 4.9 nM)
- MIC (S. aureus; MRSA, read-out: MIC (median), S. aureus MRSA, 12 isolates): 0.008 mg/L (≈ 4.9 nM)
- MIC (S. aureus; MSSA, S. aureus MMX 7907, MSSA): 0.008 mg/L (≈ 4.9 nM)
- MIC (S. aureus; MSSA, S. aureus MMX 7908, MSSA): 0.015 mg/L (≈ 9.19 nM)
- MIC (S. aureus; MSSA, read-out: MIC (median), S. aureus MSSA, 4 isolates): 0.012 mg/L (≈ 7.35 nM)
- MIC (S. aureus; NRS1 / VISA, S. aureus NRS1, VISA, Mu50): 0.06 mg/L (≈ 36.8 nM)
- MIC (S. aureus; NRS2, S. aureus NRS2, hVISA;Mu3): 0.015 mg/L (≈ 9.19 nM)
- MIC (S. aureus; NRS4 / VISA, S. aureus NRS4, VISA): 0.06 mg/L (≈ 36.8 nM)
- MIC (S. aureus; NRS13 / VISA, S. aureus NRS13, VISA): 0.03 mg/L (≈ 18.4 nM)
- MIC (S. aureus; NRS22 / VISA, S. aureus NRS22, VISA): 0.06 mg/L (≈ 36.8 nM)
- MIC (S. aureus; NRS23, S. aureus NRS23, hVISA): 0.03 mg/L (≈ 18.4 nM)
- MIC (S. aureus; NRS52 / VISA, S. aureus NRS52, VISA): 0.03 mg/L (≈ 18.4 nM)
- MIC (S. aureus; VISA, read-out: MIC (median), S. aureus VISA, 5 isolates): 0.06 mg/L (≈ 36.8 nM)
- MIC (S. aureus; read-out: MIC (median), S. aureus hVISA, 2 isolates): 0.023 mg/L (≈ 14.1 nM)
- MIC:MBC (Enterococcus faecium; E. faecium VanA VRE): >4
- MIC:MBC (Enterococcus faecium; E. faecium VanB VRE): >8
- MIC (Enterococcus faecium; E. faecium MMX 4204, VSE): 0.004 mg/L (≈ 2.45 nM)
- MIC (Enterococcus faecium; E. faecium VSE, 1 isolate): 0.004 mg/L (≈ 2.45 nM)
- MIC (Enterococcus faecium; VRE, E. faecium MMX 173, VanB VRE): 0.008 mg/L (≈ 4.9 nM)
- MIC (Enterococcus faecium; VRE, E. faecium MMX 851, VanA VRE): 1 mg/L (≈ 613 nM)
- MIC (Enterococcus faecium; VRE, E. faecium VanA VRE, 1 isolate): 1 mg/L (≈ 613 nM)
- MIC (Enterococcus faecium; VRE, E. faecium VanB VRE, 1 isolate): 0.008 mg/L (≈ 4.9 nM)
- MIC (MSSA ATCC 29213): 0.016 mg/L (≈ 9.8 nM)
